Experimental data: patent publication US6905836B2, “Methods for identifying compounds that inhibit ubiquitin-mediated proteolysis of iκb” (Yissum Research Development Company of the Hebrew …, priority 2000, dated 2005)
Residues, ends and D or L forms follow the SMILES beside them. *: point of attachment. Cbz = O=C(OCc1ccccc1)*

T1: E3RS-hnRNP-U complex (Homo sapiens, UniProt Q9Y297)
T1 construct: expressed in transfected cells; host or cells: 293T cells
T1 sequence (Q9Y297 1-605): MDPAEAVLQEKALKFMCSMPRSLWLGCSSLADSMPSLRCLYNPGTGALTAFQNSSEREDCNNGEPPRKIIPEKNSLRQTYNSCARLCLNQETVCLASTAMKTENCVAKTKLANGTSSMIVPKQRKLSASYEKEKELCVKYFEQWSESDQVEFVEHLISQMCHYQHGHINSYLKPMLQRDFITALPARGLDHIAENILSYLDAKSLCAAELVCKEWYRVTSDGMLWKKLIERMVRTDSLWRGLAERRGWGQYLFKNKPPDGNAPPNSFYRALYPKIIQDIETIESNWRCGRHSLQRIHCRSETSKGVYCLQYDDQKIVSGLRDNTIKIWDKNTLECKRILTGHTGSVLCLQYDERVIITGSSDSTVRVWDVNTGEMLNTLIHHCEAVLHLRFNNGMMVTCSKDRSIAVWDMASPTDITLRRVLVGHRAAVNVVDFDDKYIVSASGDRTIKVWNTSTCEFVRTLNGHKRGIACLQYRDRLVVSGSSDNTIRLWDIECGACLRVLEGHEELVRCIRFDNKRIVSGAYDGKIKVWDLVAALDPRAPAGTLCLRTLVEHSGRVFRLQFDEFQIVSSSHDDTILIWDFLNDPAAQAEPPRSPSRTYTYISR


Tests used:
[1] = test system: Vpu-mediated GFP-CD4 degradation; assay: Vpu-mediated CD4 degradation assay (GFP-CD4, tet-off Vpu); assay type: cell-based, human; settings: 293 cells, pretreatment of transfected cells, Western blotting (FIG. 7C)
Method: The inducible system consists of the tetracycline (Tc)-responsive promoter system developed by Gossen and Bujard (1992). Vpu and GFP-CD4 expression were performed in either HeLa Tet-off gene expression system (CLONTECH). These stably transfected HeLa cells carry the pTet-Off regulator plasmid encoding a tetracycline-controlled transactivator (tTA), which also includes a neomycin-resistance gene. Alternatively 293 cells were transfected with the inducible constructs and the pTet-Off plasmid (Lavon et al., 2000). […]
The ubiquitin-ligase activity is measured as a function of Vpu-mediated GFP-CD4 degradation (FIG. 7A). […] The N-terminal CD4 sequence, including the first three Ig-like domains (but preserving the CD4 signal sequence), was replaced with the human EGFP sequence for allowing the quantitative measurement of the fusion protein through the GFP fluorescence signal.
A GFP-CD4 expression plasmid was co-transfected into 293 cells together with expression plasmids for doxycycline (DOX)-regulated HIV-Vpu and tTA (tetracycline transactivator) plasmid. Vpu and GFP-CD4 expression were detected by Western blotting. […]

[2] = biological target: T1, E3RS-hnRNP-U complex; assay: Dissociation of E3RS from immobilized hnRNP-U by IκBα species; assay type: binding; settings: anti-hnRNP-U immunobeads from Flag-E3RS transfected 293T cells; Western blot (FIG. 4D)
Method: Flag-E3RS and endogenous hnRNP-U from 293T cells were used as an E3 source and Flag-WD was used as a negative control. 100 μg protein extract was immunoprecipitated using 2 μl anti-Flag beads or 0.21 μl anti-hnRNP-U antibodies. IκB was phosphorylated by the constitutively-active IκB kinase (IKK2; (Mercurio et al., 1997)) and subjected to binding and ubiquitination assays with each of the above E3 sources, as described previously by (Yaron et al., 1998).
Next, 293T cells transfected with Flag-E3RS were immunoprecipitated using anti-Flag (lanes 1,2) or anti-hnRNP-U (FIG. 4D, lanes 3-7) antibodies. IκBα (FIG. 4D, lanes 1,3,4) and IKK phosphorylated IκBα (pIκBα; FIG. 4D, lanes 2,5-7) were incubated with the immunobeads, after which, both the immunobeads (slurry (S); FIG. 4D, lanes 1-3,5) and the post-slurry fractions (PS; FIG. 4D, lanes 4,6) were analyzed by Western blot directly, or after immunoprecipitation of the post-slurry fraction (same as in FIG. 4D, lane 6) with anti-Flag beads (FIG. 4D, lane 7).

Molecule	GFP-CD4 signal upon Vpu expression [1]	dissociation of E3RS from immobilized hnRNP-U into the post-slurry fraction [2]
CC(C)C[C@@H](C=O)NC(=O)[C@H](CC(C)C)NC(=O)[C@H](CC(C)C)NC(=O)OCc1ccccc1 [MG132] (Cbz-Leu-Leu-Leu-aldehyde)	preservation of the GFP-CD4 signal	
pIκBα: IKK phosphorylated IκBα protein (protein) MFQAAERPQEWAMEGPRDGLKKERLLDDRHDSGLDSMKDEEYEQMVKELQEIRLEPQEVPRGSEPWKQQLTEDGDSFLHLAIIHEEKALTMEVIRQVKGDLAFLNFQNNLQQTPLHLAVITNQPEIAEALLGAGCDPELRDFRGNTPLHLACEQGCLASVGVLTQSCTTPHLHSILKATNYNGHTCLHLASIHGYLGIVELLVSLGADVNAQEPCNGRTALHLAVDLQNPDLVSLLLKCGADVNRVTYQGYSPYQLTWGRPSTRIQQQLGQLTLENLQMLPESEDEESYDTESEFTEFTEDELPYDDCVFGGQRLTL		induced the dissociation of the E3RS from the immobilized hnRNP-U
